A value given as a limit tells only on which side of the number the result lay.

The experiment has as its target T1, human TRPC6 (Homo sapiens, UniProt Q9Y210).
T1 construct: expressed in transfected cells
T1 sequence (Q9Y210 1-931): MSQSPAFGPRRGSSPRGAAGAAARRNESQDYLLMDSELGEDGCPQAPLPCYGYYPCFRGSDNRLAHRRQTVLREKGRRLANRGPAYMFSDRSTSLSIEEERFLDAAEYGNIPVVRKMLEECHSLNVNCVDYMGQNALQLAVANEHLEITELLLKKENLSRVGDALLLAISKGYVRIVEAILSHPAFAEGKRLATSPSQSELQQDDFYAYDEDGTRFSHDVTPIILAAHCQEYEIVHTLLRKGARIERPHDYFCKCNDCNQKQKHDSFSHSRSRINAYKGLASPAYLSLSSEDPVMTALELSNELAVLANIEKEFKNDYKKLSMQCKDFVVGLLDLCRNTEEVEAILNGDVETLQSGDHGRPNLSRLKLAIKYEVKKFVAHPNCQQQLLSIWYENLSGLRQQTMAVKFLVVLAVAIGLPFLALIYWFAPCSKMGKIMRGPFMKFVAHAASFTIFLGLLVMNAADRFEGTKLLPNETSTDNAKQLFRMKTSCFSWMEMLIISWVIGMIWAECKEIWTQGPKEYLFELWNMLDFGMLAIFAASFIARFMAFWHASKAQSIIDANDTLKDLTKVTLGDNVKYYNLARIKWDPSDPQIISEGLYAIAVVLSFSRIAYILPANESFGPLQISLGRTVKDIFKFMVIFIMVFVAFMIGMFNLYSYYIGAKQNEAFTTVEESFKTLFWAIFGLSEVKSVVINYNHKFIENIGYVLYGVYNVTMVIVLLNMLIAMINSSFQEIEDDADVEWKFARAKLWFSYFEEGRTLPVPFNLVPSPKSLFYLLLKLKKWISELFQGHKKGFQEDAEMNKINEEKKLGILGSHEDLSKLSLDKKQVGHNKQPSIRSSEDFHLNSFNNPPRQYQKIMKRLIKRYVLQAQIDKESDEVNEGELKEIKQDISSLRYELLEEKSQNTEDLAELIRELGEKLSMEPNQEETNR
Kind of experiment: TRPC6 calcium flux assay (FLIPR, OAG-stimulated calcium influx). It counts as cell-based. To be noted: HEK293 cells stably transfected with human TRPC6, read-out: hTRPC6 Potency. In short, it runs like this:
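HEK293 cells stably expressing human TRPC6, loaded with calcium dye 90–120 min at RT, then given compound for 25 min before OAG (50 uM final, 0.5% DMSO) in HEPES buffer pH 7.2 with 2 mM CaCl2. Background-subtracted FLIPR peak over 180 s normalized to OAG vs buffer; IC50 from dose plot.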
With `N#Cc1ccc(Cn2c(N3CC[C@@H](F)[C@H](N)C3)nc3cc(C(F)(F)F)c(F)cc32)nc1` [Example 21, 6-((2-((3R,4R)-3-amino-4-fluoropiperidin-1-yl)-6-fluoro-5-(trifluoromethyl)-1H-benzo[d]imidazol-1-yl)methyl)nicotinonitrile], the IC50 stood at 0.658 nM.

In the case of `CN(C)C(=O)C1CCCN(C(=O)Cn2c(N3CC[C@@H](F)[C@H](N)C3)nc3cc(F)c(F)cc32)C1` (stereo partly drawn) [Example 657, 1-(2-(2-((3R,4R)-3-amino-4-fluoropiperidin-1-yl)-5,6-difluoro-1H-benzo[d]imidazol-1-yl)acetyl)-N,N-dimethylpiperidine-3-carboxamide], the IC50 is > 3750 nM.

Take `N#Cc1ccc(Cn2c(N3CC[C@H](F)[C@H](N)C3)nc3cc(C(F)(F)F)ccc32)nc1` [Example 107, 6-((2-((3R,4S)-3-amino-4-fluoro-1-piperidinyl)-5-(trifluoromethyl)-1H-benzimidazol-1-yl)methyl)-3-pyridinecarbonitrile]: the IC50 was 7.88 nM.

For `COCCN(C(=O)Cn1c(N2CC[C@@H](F)[C@H](N)C2)nc2cc(F)c(F)cc21)C1CCS(=O)(=O)C1` (stereo partly drawn) [Example 538, 2-(2-((3R,4R)-3-amino-4-fluoropiperidin-1-yl)-5,6-difluoro-1H-benzo[d]imidazol-1-yl)-N-(1,1-dioxidotetrahydrothiophen-3-yl)-N-(2-methoxyethyl)acetamide], the IC50 is > 3750 nM.

On to `N[C@@H]1CN(c2nc3cc(F)ccc3n2Cc2nnc(C(F)F)s2)CC[C@H]1F` [Example 587, (3R,4R)-1-(1-((5-(difluoromethyl)-1,3,4-thiadiazol-2-yl)methyl)-5-fluoro-1H-benzo[d]imidazol-2-yl)-4-fluoropiperidin-3-amine], for which the IC50 came out at 765 nM.

Consider `N[C@@H]1CN(c2nc3cc(F)c(F)cc3n2Cc2cc(-c3cccc(Cl)c3)no2)CC[C@H]1F` [Example 263, (3R,4R)-1-(1-((3-(3-chlorophenyl)-1,2-oxazol-5-yl)methyl)-5,6-difluoro-1H-benzimidazol-2-yl)-4-fluoro-3-piperidinamine], for which the IC50 came out at 765 nM.

As to `C[C@]1(N)CCCN(c2nc3ccccc3n2Cc2ccc(C#N)cn2)C1` [Example 141, 6-((2-((3S)-3-amino-3-methyl-1-piperidinyl)-1H-benzimidazol-1-yl)methyl)-3-pyridinecarbonitrile], the IC50 was 13.5 nM.

As for `COc1ccc2c(c1)nc(N1CC[C@@H](F)[C@H](N)C1)n2CC(=O)N(C)C` [Example 450, 2-(2-((3R,4R)-3-amino-4-fluoropiperidin-1-yl)-5-methoxy-1H-benzo[d]imidazol-1-yl)-N,N-dimethylacetamide], the IC50 is > 3750 nM.

For `COc1ccc2nc(N3CC[C@@H](F)[C@H](N)C3)n(CC(=O)N(C)C)c2c1` [Example 448, 2-(2-((3R,4R)-3-amino-4-fluoropiperidin-1-yl)-6-methoxy-1H-benzo[d]imidazol-1-yl)-N,N-dimethylacetamide], the IC50 was determined as 123 nM.

For the molecule `N#Cc1ccc(Cn2c(N3CC[C@@H](F)[C@H](N)C3)nc3cc(Cl)cnc32)nc1` [Example 92, 6-((2-((3R,4R)-3-amino-4-fluoropiperidin-1-yl)-6-chloro-3H-imidazo[4,5-b]pyridin-3-yl)methyl)nicotinonitrile], the IC50 was found to be 43.8 nM.

In the case of `N#Cc1ccc(Cn2c(N3CCC[C@@](N)(CO)C3)nc3ccccc32)nc1` [Example 104, (S)-6-((2-(3-amino-3-(hydroxymethyl)piperidin-1-yl)-1H-benzo[d]imidazol-1-yl)methyl)nicotinonitrile], the IC50 came out at 61.8 nM.

In the case of `N#Cc1cc(Cl)ccc1Cn1c(N2CCC[C@@H](N)C2)nc2ccccc21` [Example 397, (R)-2-((2-(3-aminopiperidin-1-yl)-1H-benzo[d]imidazol-1-yl)methyl)-5-chlorobenzonitrile], the IC50 stood at 1580 nM.

Consider `CC(C)(C#N)C1CCN(C(=O)Cn2c(N3CC[C@@H](F)[C@H](N)C3)nc3cc(F)c(F)cc32)CC1` [Example 653, 2-(1-(2-(2-((3R,4R)-3-amino-4-fluoropiperidin-1-yl)-5,6-difluoro-1H-benzo[d]imidazol-1-yl)acetyl)piperidin-4-yl)-2-methylpropanenitrile], for which the IC50 was > 3750 nM.

Regarding `Cc1nnc(Cn2c(N3CCC(F)(F)[C@H](N)C3)nc3cc(F)ccc32)s1` [Example 597, (R)-4,4-difluoro-1-(5-fluoro-1-((5-methyl-1,3,4-thiadiazol-2-yl)methyl)-1H-benzo[d]imidazol-2-yl)piperidin-3-amine], the IC50 is > 3750 nM.

In the case of `CC(c1ncc(Cl)cn1)n1c(N2CC[C@@H](F)[C@H](N)C2)nc2cc(F)c(F)cc21` (stereo in doubt) [Example 508, (3R,4R)-1-(1-((R)-1-(5-chloropyrimidin-2-yl)ethyl)-5,6-difluoro-1H-benzo[d]imidazol-2-yl)-4-fluoropiperidin-3-amine], the IC50 amounted to 112 nM.

`COc1ccc2c(c1)nc(N1CC[C@@H](F)[C@H](N)C1)n2CC(=O)N(C)CC(F)(F)F` [Example 449, 2-(2-((3R,4R)-3-amino-4-fluoropiperidin-1-yl)-5-methoxy-1H-benzo[d]imidazol-1-yl)-N-methyl-N-(2,2,2-trifluoroethyl)acetamide]: the IC50 stood at 1160 nM.

With `N[C@@H]1CCCN(c2nc3ccccc3n2Cc2ccc3ccncc3c2)C1` [Example 293, (R)-1-(1-(isoquinolin-7-ylmethyl)-1H-benzo[d]imidazol-2-yl)piperidin-3-amine], the IC50 is 2920 nM.

Consider `CC(c1ccncc1)N(C)C(=O)Cn1c(N2CC[C@@H](F)[C@H](N)C2)nc2cc(F)c(F)cc21` (stereo partly drawn) [Example 613, 2-(2-((3R,4R)-3-amino-4-fluoropiperidin-1-yl)-5,6-difluoro-1H-benzo[d]imidazol-1-yl)-N-methyl-N-(1-(pyridin-4-yl)ethyl)acetamide], for which the IC50 worked out at 24.2 nM.

For `COC(=O)C1CCN(C(=O)Cn2c(N3CC[C@@H](F)[C@H](N)C3)nc3cc(F)c(F)cc32)CC1` [Example 512, methyl 1-(2-(2-((3R,4R)-3-amino-4-fluoropiperidin-1-yl)-5,6-difluoro-1H-benzo[d]imidazol-1-yl)acetyl)piperidine-4-carboxylate], the IC50 turned out to be 162 nM.

Take `Cc1nnc(Cn2c(N3CC[C@@H](F)[C@H](N)C3)nc3ncc(F)cc32)s1` [Example 574, (3R,4R)-4-fluoro-1-(6-fluoro-1-((5-methyl-1,3,4-thiadiazol-2-yl)methyl)-1H-imidazo[4,5-b]pyridin-2-yl)piperidin-3-amine]: the IC50 was 153 nM.

For the molecule `CN(C)C(=O)Cn1c(N2CC[C@@H](F)[C@H](N)C2)nc2ccc(OC(F)(F)F)cc21` [Example 468, 2-(2-((3R,4R)-3-amino-4-fluoropiperidin-1-yl)-6-(trifluoromethoxy)-1H-benzo[d]imidazol-1-yl)-N,N-dimethylacetamide], the IC50 worked out at 178 nM.

On to `N#Cc1ccc(Cn2c(N3CCC(F)(F)[C@H](N)C3)nc3c(Cl)cccc32)nc1` [Example 10, (R)-6-((2-(3-amino-4,4-difluoropiperidin-1-yl)-4-chloro-1H-benzo[d]imidazol-1-yl)methyl)nicotinonitrile], for which the IC50 came out at 6.06 nM.

Turning to `N[C@@H]1CN(c2nc3cc(F)c(F)cc3n2Cc2ccc(Cl)cc2F)CC[C@H]1F` [Example 358, (3R,4R)-1-(1-(4-chloro-2-fluorobenzyl)-5,6-difluoro-1H-benzimidazol-2-yl)-4-fluoro-3-piperidinamine], the IC50 amounted to 6.47 nM.
